Results published in BindingDB's records for doi:10.1016/j.bmcl.2009.04.039 (Johnson & Johnson Pharmaceutical Research & Development, 2009).

Target: T1, Signal transducer and activator of transcription 5A (Homo sapiens, UniProt P42229)
T1 sequence (P42229 whole entry): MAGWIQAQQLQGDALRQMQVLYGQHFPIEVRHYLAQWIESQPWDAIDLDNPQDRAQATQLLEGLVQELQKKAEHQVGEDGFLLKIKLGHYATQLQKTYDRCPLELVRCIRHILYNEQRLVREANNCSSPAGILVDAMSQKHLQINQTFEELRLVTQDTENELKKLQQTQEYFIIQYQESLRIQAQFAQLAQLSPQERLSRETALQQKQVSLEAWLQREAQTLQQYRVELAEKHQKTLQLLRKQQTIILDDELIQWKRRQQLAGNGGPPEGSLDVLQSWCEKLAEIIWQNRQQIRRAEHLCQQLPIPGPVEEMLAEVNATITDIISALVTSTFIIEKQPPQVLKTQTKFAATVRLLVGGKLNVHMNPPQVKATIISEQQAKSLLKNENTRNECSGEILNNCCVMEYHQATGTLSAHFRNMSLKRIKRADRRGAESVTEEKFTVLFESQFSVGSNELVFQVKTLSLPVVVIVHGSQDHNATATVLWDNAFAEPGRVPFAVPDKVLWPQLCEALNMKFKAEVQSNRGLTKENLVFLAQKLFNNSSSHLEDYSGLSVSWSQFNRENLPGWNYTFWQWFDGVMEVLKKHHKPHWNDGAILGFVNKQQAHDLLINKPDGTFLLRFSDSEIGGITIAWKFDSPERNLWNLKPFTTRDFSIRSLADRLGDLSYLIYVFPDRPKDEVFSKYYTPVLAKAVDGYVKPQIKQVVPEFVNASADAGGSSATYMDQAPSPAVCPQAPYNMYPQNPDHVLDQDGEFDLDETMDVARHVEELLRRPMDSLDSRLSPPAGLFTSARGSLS
Assay: Inhibition of STAT5 phosphorylation in IL2-stimulated healthy human T cells by Western blotting

## O=C1NCc2c1c1c3ccccc3n3c1c1c2c2ccccc2n1C[C@@H](O)[C@@H](O)C3 [12,13-(2,3-Cis-dihyroxy-1,4-butyl)-6,7,12,13-tetrahydro-5-oxo-5H-indolo[2,3-a]pyrrolo[3,4-c]carbazole]
  IC50: 0.689 µM
